Measurements: US11510886B2, “Metformin amino acid compounds and methods of using the same” (Laboratorios Silancs S.A. DE C.V., priority 2016, dated 2022)
Entries after “also recorded” stand apart in the source; their conditions may differ. Where a name gives a salt, the structure may show the parent alone. Read-outs that look alike come from different tables or passages of the source.

Tests used:
[1] = biological target: T1, GPBP, LKB1/STRADα/MO25, AMPK, AS160 (Homo sapiens, UniProt Q9Y5P4); experiment: In vitro phosphorylation of GPBP with LKB1 complex, AMPK and AS160
T1 sequence (Q9Y5P4 1-624): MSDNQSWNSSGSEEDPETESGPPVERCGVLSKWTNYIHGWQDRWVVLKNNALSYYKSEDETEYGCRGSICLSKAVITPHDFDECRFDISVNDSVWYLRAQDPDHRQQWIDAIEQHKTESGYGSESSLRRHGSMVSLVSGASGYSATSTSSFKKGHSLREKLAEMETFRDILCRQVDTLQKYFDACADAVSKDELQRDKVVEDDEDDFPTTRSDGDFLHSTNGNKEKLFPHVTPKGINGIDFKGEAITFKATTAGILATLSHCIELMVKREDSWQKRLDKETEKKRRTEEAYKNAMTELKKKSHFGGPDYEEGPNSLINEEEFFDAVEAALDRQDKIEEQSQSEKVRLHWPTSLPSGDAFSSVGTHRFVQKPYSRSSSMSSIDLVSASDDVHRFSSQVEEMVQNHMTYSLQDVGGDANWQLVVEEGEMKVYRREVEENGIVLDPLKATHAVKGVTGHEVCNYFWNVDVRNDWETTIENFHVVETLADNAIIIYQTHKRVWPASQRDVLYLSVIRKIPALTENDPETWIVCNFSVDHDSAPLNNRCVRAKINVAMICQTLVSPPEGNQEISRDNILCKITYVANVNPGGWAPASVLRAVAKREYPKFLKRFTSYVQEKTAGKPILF

[2] = biological target: T2, GPBP (Homo sapiens, UniProt Q9Y5P4); experiment: In vitro (auto)phosphorylation of recombinant FLAG-GPBP; format: biochemical; set-up: made in house; host or cells: Pichia pastoris; conditions: for GPBP in vitro kinase activity (autophosphorylation): β-glycerophosphate phosphorylation solution pH 7.0, [γ-32P]ATP, autoradiography (FIG. 64)
T2 sequence (Q9Y5P4 1-624): T1 sequence (Q9Y5P4 1-624)
Experimental: FIG. 64. […]. Recombinant FLAG-GPBP, in similar quantities, expressed in yeast Pichia pastoris (Invitrogen) and purified with anti-FLAG resin (Sigma), as described above (Raya et al. J Biol Chem. 1999; […]. The reaction cocktails (25 μl) were incubated at 30° C. and stirred (350 rpm) for 15 minutes, then analyzed using PAGE standard procedures in the presence of SDS and β-mercaptoethanol, and electrotransferred to PVDF membrane (Immobilon P, Millipore). Membranes were then exposed to autoradiography (32P) and subsequently sent for incubation with anti-FLAG antibodies, peroxidase-labelled; ECL Prime (GE Healthcare) (WB anti-FLAG) was used for developing.
[…]. Then, electrophoresis in 10% polyacrylamide gel and electroblotting to PVDF membrane were applied. Autoradiography was applied to membranes by exposure to photographic films (Amersham Hyperfilm MP, GE Healthcare Lifesciences). After autoradiography, the membranes were blocked with 5% skimmed milk in TBST and incubated with anti-FLAG (Sigma) monoclonal antibodies and secondary antibodies against mouse IgG conjugated to peroxidase (Promega).

[3] = tested on: RAW264.7 macrophages and L1 adipocytes co-cultures; experiment: Cytometric analysis of RAW + L1 co-cultures; format: cell-based, Mice; conditions: for EVENTS, F4/80^+CD86^− (first line) / %, F4/80^+CD86^− (second line) / EVENTS, F4/80^+CD86^− (second line) / %, F4/80^+CD86^− (first line) / %, F4/80^+: 10 mM, 24 hours; for %, F4/80^+CD86^− (second line): M1 macrophage percentage of total macrophages; for EVENTS, F4/80^+CD86^− (second line): M1 macrophages; for %, F4/80^+CD86^− (first line): of total macrophages; for %, F4/80^+: total macrophages; for reduction of the proportion of macrophages in M1: co-cultures
Description: One of the key pathogenic events in hyperglycemia of obese patients is the emergence of a pathogenic feedback between adipose tissue and macrophages of the immune system, in which adipocytes attract macrophages, polarizing them to pro-inflammatory phenotypes, and polarized macrophages secrete cytokines, promoting resistance to adipocyte insulin (Johnson A M, Olefsky J M. Cell. 2013; 152:673-84). To reproduce this pathogenic dialogue ex vivo and investigate the activity of SLNs compounds thereon, cytometric techniques allowing the discrimination between these cell lines and determination of phenotypic changes in macrophages in response to individual compounds (Table 18) were used.
RAW264.7 macrophages were added to adipocyte cultures, and the co-culture was maintained in DMEM supplemented with 10% FBS and antibiotics for 8 hours. […]. Next, cells were washed with PBS and collected by mechanical methods (without trypsin) to prevent protein loss from the cell surface. Cells were then blocked (FcBlock, BD Pharmingen) for 15 minutes at 4° C., and incubated for 20-30 minutes at 4° C. in darkness with anti-mouse F4/80 (eBioscience), conjugated with PerCP-Cy5.5, to mark macrophages, and anti-mouse CD86 (BioLegend), conjugated with PE-Cy7.7, to mark macrophages M1 specifically. Afterwards, cells were washed three times with PBS and centrifuged (500×g, 10 minutes, 4° C.), after which they were analyzed with a cytometer (FACSVerse, BD). In Table 6, the M1 macrophage percentage of the total macrophages analyzed (burgundy) for each treatment is highlighted in yellow.

[4] = tested on: GLUT4; experiment: GLUT4-GFP transport to plasma membrane in NIH-3T3-L1 adipocytes; format: cell-based, Mice; conditions: confocal microscopy (FIG. 75)
Experimental: FIG. 75. […] NIH-3T3-L1 cells were transfected with a construction expressing GLUT4 fused with Green Fluorescent Protein-GFP (Addgene). Transfected cells were selected by flow cytometry, taking advantage of GFP fluorescence, and cultured in DMEM supplemented with 10% FBS. […] Images were analyzed with the WCIF ImageJ software to detect colocalization of GPBP (red) with GLUT4 (green). […].

[5] = STZ-diabetic male rats, mean ± SD; for Absolute body weight, Day −1 / Absolute body weight, Day −2 (distribution of groups): before first TI/RI administration

Row | Molecule | GPBP autophosphorylation in presence of LKB1 mix, AMPK and AS160 [1] | GPBP in vitro kinase activity (autophosphorylation) [2] | EVENTS, F4/80^+CD86^− (first line) [3] | %, F4/80^+CD86^− (second line) [3] | EVENTS, F4/80^+CD86^− (second line) [3] | %, F4/80^+CD86^− (first line) [3] | %, F4/80^+ [3] | reduction of the proportion of macrophages in M1 [3] | distribution of GPBP and GLUT4 in L1 adipocytes [4] | Absolute body weight, Day −3 (before STZ administration) ([5]; baseline before STZ and before first TI/RI administration) | Absolute body weight, Day −1 [5] | Absolute body weight, Day −2 (distribution of groups) [5] | GPBP autophosphorylation in presence of LKB1 mix, AMPK and AS160 ([1]; FIG. 73, listed as SLN10) | incorporation of phosphate by LKB1/STRADα ([1]; GPBP present in the reaction mixture) | GPBP inhibition depending on reaction medium ([2]; Na buffer: 25 mM Tris-HCl pH 7.4, 150 mM NaCl (FIG. 66)) | active ingredient concentration corresponding to 1 mM ([2]; in vitro assays, pH 7.0, applicant's estimate) | GPBP in vitro kinase activity (autophosphorylation) ([2]; listed as SLN10)
1 | CN(C)C(=N)N=C(N)N [Metformin hydrochloride, metformin hydrochloride, reference compound] | activates GPBP phosphorylation; also recorded: stimulated GPBP autophosphorylation | moderate activator | 551 | 65.76% | 1,058 | 34.24% | 100.00% | lowest activity | low presence in secretory vesicles | 231.30 ± 11.83 g | 210.43 ± 11.90 g | 223.73 ± 10.88 g | – | – | – | – | –
2 | metformin lysinate | – | – | 566 | 62.96% | 962 | 37.04% | 100.00% | strongest effect | widely located in the plasma membrane | – | 212.73 ± 0.23 g | 217.67 ± 9.71 g | inhibit it increasingly; also recorded: inhibited it progressively | inhibited the incorporation of phosphate by LKB1/STRADα efficiently | inhibits GPBP in Na buffer | 8.6 µM | inhibits GPBP in vitro kinase activity; also recorded: kinase activity inhibitors
